Reference: article PMC11864979, “First-in-class ultralong-target-residence-time p38α inhibitors as a mitosis-targeted therapy for colorectal cancer” (Nature Cancer, 2025)
Values joined by “and” are separate entries in the source; they are usually repeats but may differ in a detail not shown here. Equal entries are not always repeated.

What was measured:
p38α = p38α (Homo sapiens, UniProt Q16539); test: target residence time (TRT) fluorescence polarization jump-dilution assay; type: binding
Protocol: TRTs were determined using a fluorescence polarization assay kit (Transcreener ADP, BellBrook Labs)[29]. […] The formed complex was ‘jump-diluted’ 1:100 (0.5 µl in 49.5 µl) in a 96-half-area-well plate with ATF2 (82 μM), ATP (40 μM) and ADP as the kinase assay detection reagents. The plate was measured every 3 min for 4 h. Fluorescence polarization was detected using the plate reader VictorNivo (PerkinElmer). The data were analyzed using the integrated rate equation in GraphPad Prism version 7.03 software. The residence time was calculated from the reciprocal value of koff.

KMP organoids = test: cell viability in KMP organoids; type: cell-based, mouse
Protocol: A total of 1,000–2,000 single cells were plated per well in white 96-well plates (Greiner) in culture medium containing 10% GFR Matrigel or Cultrex BME. The treatment with doxycycline (5 µg ml^−1), pharmacological inhibitors or corresponding volumes of DMSO was started 24 h after plating. Doxycycline was obtained from Sigma-Aldrich. […] Results were normalized to vehicle (DMSO) or to shNC. For cell-doubling assays, the cell number was quantified at the corresponding time points using Guava EasyCyte flow cytometer (Luminex, CytoSoft v5.2 software).

PDO1 = test: cell viability in patient-derived CRC organoids PDO1; type: cell-based, human; conditions: Fig. 3b, replicates
Protocol: (§1) For in vitro treatment studies, organoids were mechanically dissociated and digested using TrypLE supplemented with 100 µg ml^−1 DNaseI and 10.5 µM Y-27632 dihydrochloride (Invitrogen) at 37 °C. A total of 1,000–2,000 single cells were plated per well in white 96-well plates (Greiner) in culture medium containing 10% GFR Matrigel or Cultrex BME. The treatment with doxycycline (5 µg ml^−1), pharmacological inhibitors or corresponding volumes of DMSO was started 24 h after plating. Doxycycline was obtained from Sigma-Aldrich. […] Cell viability was measured by means of CellTiter-Glo 3D or CellTiter-Glo 2.0 reagent (Promega) according to the manufacturers’ instructions and the Infinite M Plex reader (Tecan, i-control version 3.9.1 software). Results were normalized to vehicle (DMSO) or to shNC. For cell-doubling assays, the cell number was quantified at the corresponding time points using Guava EasyCyte flow cytometer (Luminex, CytoSoft v5.2 software).

PDO2 = test: cell viability in patient-derived CRC organoids PDO2; type: cell-based, human; conditions: Fig. 3c, replicates
Protocol: as §1

PDO3 = test: cell viability in patient-derived CRC organoids PDO3; type: cell-based, human; conditions: Fig. 3d, replicates
Protocol: as §1

PDO4 = test: cell viability in patient-derived CRC organoids PDO4; type: cell-based, human; conditions: Fig. 3e, replicates
Protocol: as §1

PDO5 = test: cell viability in patient-derived CRC organoids PDO5; type: cell-based, human; conditions: Fig. 3f, replicates
Protocol: as §1

PDO10 = test: cell viability in patient-derived CRC organoids PDO10; type: cell-based, human
Protocol: as §1

HCT 116 = test: cell viability in human CRC cell line HCT 116; type: cell-based; conditions: 4 d
Protocol: To generate KAP^2D cells, KAP organoids were isolated from Matrigel, fragmented by mechanical dissociation and plated without any extracellular matrix on common cell culture dishes. Phoenix-Eco packaging cells (CRL-3214), HCT-15 (CCL-225), HCT 116 (CCL-247), COLO 205 (CCL-222), LS 174T (CL-188), RKO (CRL-2577) and HT-29 (HTB-38) were obtained from the American Type Culture Collection. The cells were cultured at 37 °C and 7% CO2 with RPMI (KAP^2D cells) or DMEM (other cell lines), supplemented with 10% FBS and penicillin–streptomycin. KAP^2D cells were authenticated using PCR (Kras locus and Trp53 locus). Phoenix-Eco packaging cells and HCT-15, HCT 116, COLO 205, LS 174T, RKO and HT-29 cells were authenticated by the provider using short tandem repeat profiling. No commonly misidentified cell lines were used. Mycoplasma contamination was excluded by a PCR-based analysis.
as §1

KAP^2D cells [1] = test: western blot analysis of p38α signaling in KAP^2D cells; type: cell-based, mouse; conditions: 1 µM, 1 day
Protocol: Proteins were extracted from cells and organoids using radioimmunoprecipitation assay extraction buffer (50 mM Tris pH 8.0, 150 mM NaCl, 1% Triton X-100, 0.5% sodium deoxycholate, 0.1% SDS, 5 mM EDTA and 1 mM EGTA) supplemented with protease and phosphatase inhibitors (cOmplete and PhosSTOP, Roche). Protein concentrations were measured using the DC (detergent compatible) Protein Assay (Bio-Rad). Briefly, 20–30 µg of protein was separated by SDS–PAGE and transferred onto PVDF membranes (Immobilon-P, Millipore). Membranes were blocked in 5% BSA and Tris-buffered saline (TBS)–Tween buffer and then incubated with primary antibodies overnight at 4 °C and with horseradish peroxidase-conjugated secondary antibodies for 1 h at room temperature. All used antibodies and dilutions are listed in the Nature Portfolio Reporting Summary. The blots were visualized using the ChemiDoc MP Imaging System (BIO-RAD) and ImageLab version 5.2.1 software. Vinculin and β-actin were used as loading controls.

KAP^2D cells [2] = test: quantification of viable KAP^2D cells over time (cell-doubling assay); type: cell-based, mouse; conditions: Fig. 4i
Protocol: The treatment with doxycycline (5 µg ml^−1), pharmacological inhibitors or corresponding volumes of DMSO was started 24 h after plating. […] Cell viability was measured by means of CellTiter-Glo 3D or CellTiter-Glo 2.0 reagent (Promega) according to the manufacturers’ instructions and the Infinite M Plex reader (Tecan, i-control version 3.9.1 software). Results were normalized to vehicle (DMSO) or to shNC. For cell-doubling assays, the cell number was quantified at the corresponding time points using Guava EasyCyte flow cytometer (Luminex, CytoSoft v5.2 software).

Sequence of p38α (Q16539 whole entry): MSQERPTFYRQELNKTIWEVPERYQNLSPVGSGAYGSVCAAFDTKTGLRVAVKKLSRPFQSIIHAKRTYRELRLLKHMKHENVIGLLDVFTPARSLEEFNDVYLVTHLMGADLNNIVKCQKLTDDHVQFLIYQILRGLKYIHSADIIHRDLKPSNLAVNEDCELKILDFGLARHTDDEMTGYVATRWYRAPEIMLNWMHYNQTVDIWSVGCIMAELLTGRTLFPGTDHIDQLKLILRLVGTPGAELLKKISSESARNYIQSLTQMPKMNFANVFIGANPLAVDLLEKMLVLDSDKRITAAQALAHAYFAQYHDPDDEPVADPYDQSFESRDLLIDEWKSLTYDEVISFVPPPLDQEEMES

Compound: O=C(NCCN1CCOCC1)c1ccc2c(c1)C(=O)c1ccc(Nc3ccc(F)c(NC(=O)c4ccccc4)c3)cc1CC2 [Compound 1639]
- TRT (p38α; Fig. 2e, replicates): 191.2 s and 188.8 s and 173.0 s
- TRT (p38α; reciprocal of koff): 184 s
- therapeutic effect in KMP organoids (in words) (KMP organoids; 4 days): no therapeutic effects
- Cell viability (%) (KMP organoids; Fig. 2i, 0,5 µM, replicates, 5 µM): 101.57% and 92.29%
- Cell viability (%) (KMP organoids; Fig. 2i, 0,25 µM, replicates): 98.98% and 85.31% and 57.91%
- Cell viability (%) (KMP organoids; Fig. 2i, 1 µM, replicates): 98.40% and 93.50%
- viability at 5 µM (KMP organoids; Mus musculus, Fig. 2i, 0,5 µM, replicates): 85.5%
- viability at 1 µM (KMP organoids; Mus musculus, Fig. 2i, 1 µM, replicates): 105%
- Cell viability (%) (PDO1; 0.5 µM): 106.52% and 84.18% and 86.35%
- Cell viability (%) (PDO1; 1 µM): 70.08% and 65.69%
- viability at 1 µM (PDO1; Homo sapiens, 1 µM): 63%
- Cell viability (%) (PDO2; 0,5 µM, 5 µM): 69.57% and 95.69% and 90.88%
- Cell viability (%) (PDO2; 0,25 µM): 93.94% and 86.22% and 63.24%
- Cell viability (%) (PDO2; 1 µM): 53.19% and 51.96%
- viability at 1 µM (PDO2; Homo sapiens, 1 µM): 68.7%
- Cell viability (%) (PDO3; 0,5 µM, 5 µM): 112.45% and 94.73% and 79.47%
- Cell viability (%) (PDO3; 0,25 µM, 25 µM): 111.26% and 82.86% and 90.87%
- Cell viability (%) (PDO3; 1 µM): 101.94% and 81.53% and 90.79%
- Cell viability (%) (PDO4; 0,5 µM, 5 µM): 53.06% and 53.55%
- Cell viability (%) (PDO4; 0,25 µM, 25 µM): 68.57% and 69.02%
- Cell viability (%) (PDO4; 1 µM): 67.76% and 68.24%
- viability at 5 µM (PDO4; Homo sapiens, 0,5 µM): 50.2%
- viability at 25 µM (PDO4; Homo sapiens, 0,25 µM): 67.4%
- viability at 1 µM (PDO4; Homo sapiens, 1 µM): 66.9%
- Cell viability (%) (PDO5; 0,5 µM, 5 µM): 95.85% and 89.27%
- Cell viability (%) (PDO5; 0,25 µM, 25 µM): 102.83% and 96.93% and 77.02%
- Cell viability (%) (PDO5; 1 µM): 104.30% and 89.98% and 81.04%
- viability at 0.5 µM (PDO10; Homo sapiens, 96 h, PDO10, 0.5 µM, 4 d, read-out: Cell viability (%)): 90.3%
- viability at 1 µM (PDO10; Homo sapiens, 96 h, PDO10, 1 µM, 4 days, read-out: Cell viability (%)): 87.1%
- Cell viability (%) (PDO10; PDO10, 0.5 µM, 4 d, 0.5 µM): 99.84% and 101.72%
- Cell viability (%) (PDO10; PDO10, 1 µM, 4 days, 1 µM): 92.00% and 89.92%
- HCT 116 Cell viability (%) (HCT 116; 0.0137 µM): 91.07% and 92.02% and 85.19% and 84.20% and 84.23%
- HCT 116 Cell viability (%) (HCT 116; 0.0412 µM): 81.63% and 80.34% and 77.04% and 76.76% and 74.10%
- HCT 116 Cell viability (%) (HCT 116; 0.1235 µM): 88.84% and 91.52% and 85.54% and 79.01% and 86.05%
- HCT 116 Cell viability (%) (HCT 116; 0.3704 µM): 94.73% and 98.85% and 85.83% and 87.08% and 84.20%
- HCT 116 Cell viability (%) (HCT 116; 1.1111 µM): 93.31% and 91.15% and 89.63% and 87.68% and 87.77%
- HCT 116 Cell viability (%) (HCT 116; 3.3333 µM): 77.27% and 77.51% and 74.83% and 76.92% and 78.08%
- HCT 116 Cell viability (%) (HCT 116; 10.0000 µM): 46.79% and 45.46% and 36.02% and 37.60% and 41.48%
- viability at 0.0137 µM (HCT 116; Homo sapiens, HCT-116, 96 h, 0.0137 µM, read-out: HCT 116 Cell viability (%)): 89.2%
- viability at 0.0412 µM (HCT 116; Homo sapiens, HCT-116, 96 h, 0.0412 µM, read-out: HCT 116 Cell viability (%)): 83.7%
- viability at 0.1235 µM (HCT 116; Homo sapiens, HCT-116, 96 h, 0.1235 µM, read-out: HCT 116 Cell viability (%)): 89%
- viability at 0.3704 µM (HCT 116; Homo sapiens, HCT-116, 96 h, 0.3704 µM, read-out: HCT 116 Cell viability (%)): 94.1%
- viability at 1.1111 µM (HCT 116; Homo sapiens, HCT-116, 96 h, 1.1111 µM): 90.8%
- viability at 3.3333 µM (HCT 116; Homo sapiens, HCT-116, 96 h, 3.3333 µM, read-out: HCT 116 Cell viability (%)): 74%
- viability at 10 µM (HCT 116; Homo sapiens, HCT-116, 96 h, 10.0000 µM): 45.5%
- MK2^T334 phosphorylation (in words) (KAP^2D cells [1]): reduced MK2^T334 phosphorylation
- Number of cells (KAP^2D cells [2]; 0 h of treatment): 41307.05 and 44263.95 and 43595.63 and 48502.24 and 40389.64
- Number of cells (KAP^2D cells [2]; 12 h of treatment): 90535.27 and 109902.14 and 96345.55 and 78642.86 and 78628.27 and 80020.34
- Number of cells (KAP^2D cells [2]; 24 h of treatment): 118591.59 and 122111.73 and 126637.09 and 105052.10 and 107245.70 and 108446.50
- Number of cells (KAP^2D cells [2]; 36 h of treatment): 147204.34 and 141762.38 and 180655.61 and 129977.80 and 144707.50 and 146373.80
- Number of cells (KAP^2D cells [2]; 48 h of treatment): 236686.34 and 244575.91 and 256532.61 and 222624.00 and 201311.80 and 207320.10
- Number of cells (KAP^2D cells [2]; 60 h of treatment): 438717.24 and 412186.50 and 425643.09 and 324012.80 and 330875.70 and 354806.50
